Measurements reported in patent US6214859A, “Ethylamine derivatives” (Fujimoto Brothers Co., Ltd., priority 1997, dated 2001).

What was measured:
[1] = tested on: monoamine release from synaptosomes; test: Releasing effect of monoamines in synaptosomes of the rat brain; conditions: compound 5×10^-5 M with tyramine 10^-6 M (FIG. 9)
Experimental: Synaptosomes were prepared as follows. Fresh striatum (for determination of dopamine) and fresh forebrain (for determination of noradrenaline and serotonin) were removed from listar rats of 8 weeks old (NIPPON S. L. C.). Ten times volumes of ice-cold 0.35 M sucrose (pH 7.4) were added in the brain tissue and homogenized using glass homogenizer with teflon pestle which was revolted by motors. Thereafter the homogenate was centrifuged at 900×g for 10 min at 4° C. and the supernatant was recentrifuged at 11,500×g for 20 min. The pellet was resuspeded in ice-cold buffer. Final concentration of synaptosomes was prepared to 0.6 mg protein/ml. Protein concentration was determined by method described in Journal of Biological Chemistry, 193, 265-275 (1951) and the bovine serum albumin was used as an authentic standard. The release of monoamine from synaptosomes was determined by the following procedure based on the method described in Journal of Pharmacology and Experimental Therapeutics, 241, 27-33 (1987). The solution of 0.6 mg/ml of synaptosomes was preincubated for 5 min at 35° C. under the oxygenated (95% O2 and 5% CO2) condition. Thereafter 25 nM ^3 H-monoamines were added in synaptosomal solution and the solutions were incubated for 5 min at 35° C. […]

[2] = target: α1 receptor; test: Affinity to α1 receptor; set-up: species or system rat; conditions: read-out: Affinity to α1 receptor (MIC50; mole concentration for 50% inhibition of binding); 0.25 nM ^3H-prazocin; 90 min
Experimental: The solution of receptor was prepared as follows. As soon as rats were decapitated, brain was removed and its weight was measured. Its brain was homogenized in ten times volumes of ice-cold 0.35 M sucrose (pH 7.4) by glass homogenizer with teflon pestle which was revolted by motors. Thereafter, the homogenate was centrifuged at 4° C. at 900×g for 10 min and the supernatant was, furthermore, recentrifuged at 4° C. at 22,000×g for 20 min. The precipitate was suspended by addition of 5 mM phosphate buffer solution (pH 7.4). After the suspension was incubated at 37° C. for 30 min, the suspension was recentrifuged at 4° C. at 22,000×g for 20 min. The precipitate was resuspended by addition of 10 ml of 5 mM phosphate buffer solution (pH 8.0). The precipitate was used as the solution of receptor.
^3 H-prazocin was used as a ligand. 0.25 nM ^3 H-prazocin in 5 mM phosphate buffer (pH 8.0), the compound of this invention and the solution of receptor were added in tube and the mixture were incubated at 25° C. for 90 min. In addition, the […] binding was shown by binding value of ^3 H-prazocin under the coexistence with 0.1 μM prazocin. The binding reaction was carried out as follows. After ^3 H-prazocin (binding type: B) bound to receptor using glassfiberfilter (pore size: 0.5 μm, Whatman GF/C.) and free type of prazocin (free type: F) were separated with B/F separator (Brandel, USA), only the binding type of ^3 H-prazocin was collected. The binding type of ^3 H-prazocin absorbed to glass-fiber filter was washed with ice-cold saline solution and was remove to vial. After 10 ml of scintillation cocktail was added in it, the radioactivity was determined. From the binding inhibition rate of α1 receptor and ligand, affinity of the compounds of this invention to α1 receptor was measured.
If affinity of certain compound to a receptor is high, the binding ligand and receptor is inhibited.

| SMILES | antagonism against the effect of tyramine [1] | IC50 [2] [µM] |
| --- | --- | --- |
| CCCNC(CCC)Cc1ccc2c(c1)OCO2.Cl (centres unmarked) [Compound No. 27, 1-(1,3-Benzodioxol-5-yl)-2-propylaminopentane Hydrochloride] | Tyramine antagonistic property |  |
| CCCNC(CCC)Cc1c[nH]c2ccccc12.Cl (centres unmarked) [Compound No. 20, 1-(Indol-3-yl)-2-propylaminopentane Hydrochloride] |  | 80 |
